Test results reported in patent publication US20210196670A1, “ORAL FORMULATIONS OF LAVENDER AND CANNABINOIDS” (EMERALD HEALTH THERAPEUTICS CANADA INC., priority 2018, published 2021).

System: activation of NF-κB by TNFα
Assay: NF-κB luciferase reporter assay (TNFα-stimulated NIH-3T3-KBFLuc cells)
Type: cell-based
Conditions: for Experiment 1 % of activity / Experiment 2 % of activity / Experiment 3 % of activity / Conclusions: Is inhibition of TNF activation of NF-κB observed?: cannabinoid 10 μM alone; for Experiment 1 % of activity / Experiment 2 % of activity / Experiment 3 % of activity: TNFα 30 ng/mL = 100%; for Conclusions: Is inhibition of TNF activation of NF-κB observed?: mean of three experiments
Method: The NF-kB pathway inhibition in response to treatment with the Cannabinoid and NHP either as single agents or in combination will be monitored using the Luciferase Reporter gene assay described in Del Prete et al, J. Nat. Prod.
For the anti-NF-κB activity stably transfected NIH-3T3-KBFLuc cells are treated with different concentration of NHP compounds for 30 minutes and then stimulated with TNF-α (30 ng/mL). After treatment, the cells are washed twice in phosphate-buffered saline and lysed in 25 mM Tris-phosphate pH 7.8, 8 mM MgCl2, 1 mM DTT, 1% Triton X-100, and 7% glycerol during 15 min at room temperature in a horizontal shaker. Luciferase activity in the supernatant is measured using a TriStar2 Berthold/LB942 multimode reader (Berthold Technologies) following the manufacturer's instructions of the luciferase assay kit (Promega, Madison, Wis., US). For NF-κB inhibition the RLU (relative light units) is calculated, and the results are normalized to 100% stimulation induced by induced by TNF-α (100% activation). The results are presented from three independent experiments.

Structure (SMILES): C=C(C)[C@@H]1CCC(C)=C[C@H]1c1c(O)cc(CCCCC)cc1O [CBD, cannabidiol]
- inhibition of NF-κB activity by the cannabinoid itself (10 μM, alone): non-inhibitory
- Experiment 1 % of activity: 93.6%
- Experiment 2 % of activity: 97.0%
- Experiment 3 % of activity: 108.2%
- Conclusions: Is inhibition of TNF activation of NF-κB observed?: Negative (Only treatments that the mean of three consecutive independent experiments shows a positive result (activity ≤50%) are considered inhibitory of NF-κB activity)

Structure (SMILES): CCCCCc1cc(O)c2c(c1)OC(C)(C)[C@@H]1CCC(C)=C[C@@H]21 [THC, tetrahydrocannabinol]
- Experiment 1 % of activity: 102.5%
- Experiment 2 % of activity: 97.8%
- Experiment 3 % of activity: 98.5%
- Conclusions: Is inhibition of TNF activation of NF-κB observed?: Negative (Only treatments that the mean of three consecutive independent experiments shows a positive result (activity ≤50%) are considered inhibitory of NF-κB activity)
